Laboratory results: a melting point compilation (Tetko et al.; mined from patent text by program, amines drawn as free bases though some values may be those of a salt)

Structure (SMILES)	melting point [°C]
Nc1cc(O)c(Cn2nc(-c3ccc(C(F)(F)F)cc3)oc2=O)cc1Cl	210 to 212
O=S(=O)(Nc1ccc2c(OCc3ccc(C4CCCCC4)cc3)cccc2c1)C(F)(F)F	108 to 110
Cc1nc2c(N)nc3c(c2n1CC(C)C)CCCC3	170 to 172
CC(=O)Nc1ccc(C#N)cc1F	170 to 172
O=C(Nc1ccc(Cl)cc1F)c1cc(-c2ccc(F)cc2F)ccc1O	245 to 246
O=C1CCC(c2ccc3nc(-c4ccncc4)[nH]c3c2)=NN1	> 320
Cc1c(C(=O)O)cnn1-c1ccc(C(F)(F)F)cc1	181
O=c1cc(C(F)(F)F)n(-c2c([N+](=O)[O-])cc([N+](=O)[O-])cc2C(F)(F)F)c(=O)[nH]1	219 to 220
O=c1[nH]c2ccc(S(=O)CCN3CCC(O)(Cc4ccc(F)cc4)CC3)cc2o1 (stereo not given)	153 to 155
Fc1cc(/C=C/c2nc(COc3ccc(CCCCn4ccnn4)cc3)co2)ccc1Cl	146 to 149
O=C1C=CN2c3ccccc3CCC2C1 (stereo not given)	135 to 137
O=C(Nc1ccc(C(F)(F)F)cc1)Nc1cccc(C(=O)N2CCOCC2)n1	208 to 210
Cc1ccc(NC(=O)OCc2ccco2)cc1NC(=O)OCc1ccco1	154 to 156
O=C1c2nc(O)ccc2C(=O)c2c(-c3ccccc3NC(=O)C(F)(F)F)ccnc21	> 260
COC(=O)c1cn(-c2cc(C(=O)OC)c([N+](=O)[O-])cc2C(F)(F)F)cn1	136 to 138
CCCSc1ncc(CC(=O)O)n1Cc1ccccc1Cl	68 to 71
NC(=O)c1ncn2c(-c3ccc(Cl)c(Cl)c3)ccnc12	302 to 304
COc1ccc(C(=O)N2CCCC2=O)cc1O	123 to 125
CCCCCCCCC(=O)OC(C)c1ccc(-c2ccc(OC)cc2)cc1 (single isomer, unassigned; (+))	59 to 60
Clc1cccc(-c2cn3c(n2)sc2ccccc23)c1	173 to 175
CCCn1nc(C(C)(F)F)nc1Cc1ccc(-c2ccccc2-c2nnn[nH]2)nc1	200
Cc1ccc(OCCCN2CCN(c3nc(N)nc(-c4cc(Cl)ccc4Cl)n3)CC2)cc1	148 to 150
CCC(=O)Oc1ccc(S(=O)(=O)N2c3ccccc3-c3ccc(F)cc3C2CC)cc1 (stereo not given)	111 to 112
C#CCN1C(=O)c2ccccc2C1O (stereo not given)	157 to 159
COc1cc(/C=C/C(=O)C#CCO)cc(OC)c1OC	113 to 115
CCC1CCCCN(C(=O)C2Cc3ccccc3N2c2ccc(=O)n(C)n2)C1 (stereo not given)	90 to 95
CCOC(=O)c1cc(C#N)c(N)cc1OC	164

Structure (SMILES)	melting point [°C]
O=C1C(c2ccc(O)cc2)=C(c2ccccc2)c2ccc(O)cc21	100 to 110
CC(=O)COc1ccc(Cl)cc1Cc1ccccc1	65 to 66
CCCCSc1nsnc1OC1CCNC1 (stereo not given)	99 to 100
COc1cc(-c2csc(Br)c2Br)cc2oc(=O)c(C)c(C)c12	194 to 196
c1ccc(C2CNc3c4c(nc5cccc(c35)O2)CCCC4)cc1 (stereo not given)	194 to 195
Cc1cc2c(s1)Nc1ccccc1N=C2N1CCN(C)[C@@H](COc2ccccc2)C1	74 to 88
O=c1[nH]c2cc(Cl)c(Cl)cc2n1CCCO	175
CC(C)(C)OC(=O)NCCNC(=O)c1ncsc1-c1cccc(OCc2cccc(C#N)c2)c1	115
CCN1CCC2(c3cccc(O)c3)Cc3[nH]c(C(=O)N(CC)CC)c(C)c3CC2C1 (stereo not given)	221 to 223
CC(C)n1nccc1-c1nn(-c2cccc(C(F)(F)F)c2)ccc1=O	183 to 184
CC1=NC(=NOC(=O)N(C)C)SC1(C)C	108 to 110
Cc1nc(-c2ccc(C#N)cc2)sc1C(=O)N[C@H](C)[C@](O)(Cn1cncn1)c1ccc(F)cc1F	109 to 111
CCCc1nc2c(N)nc3cc(-c4ccccc4)ccc3c2n1CCCC(C)=O	202 to 204
Nc1c(C=O)cc(-n2cnnc2)cc1C(F)(F)F	234 to 236
NC(=O)C1=CCNCC1	104 to 106
CC12CC=C3C(CCC4(CCC#N)CC(O[Si](C)(C)C(C)(C)C)CCC34C)C1CCC2O[Si](C)(C)C(C)(C)C (stereo not given)	194 to 195
CSC(=O)C(=O)c1cc(NC=O)ccn1	145 to 148
CCCCCCCCCCCCCCCCCC(=O)N[C@@H](C)C(=O)OC	84
N=C(N)NCc1cc(CCC(=O)O)no1	> 297
CCOc1ccc2c(c1)n(C1CCCCC1)c(=O)n2Cc1ccc([N+](=O)[O-])cc1OC	120
Cc1cccc2c1nc(-c1ccccc1Cl)n2CC(C)O (stereo not given)	164 to 165
CC1(C)CCC(C)(C)c2c(OCc3ccc(F)cc3)cc(C(O)c3ccc4cc(C(=O)O)ccc4c3)cc21 (stereo not given)	212
O=c1[nH]c2cccnc2o1	252
CC(C)(C)OC(=O)CC1(C(=O)OCc2ccccc2)C(=O)N(Cc2ccc(Cl)c(Cl)c2)C(=O)c2cccn21 (stereo not given)	86 to 88
NS(=O)(=O)c1cc2c(Cl)csc2s1	158 to 160
CCOC(=O)c1ncc2[nH]c3ccc(SC)cc3c2n1	265 to 266
O=[N+]([O-])c1cnn(-c2c(Cl)cc(C(F)(F)F)c(Cl)c2Cl)c1Br	97 to 99

Structure (SMILES)	melting point [°C]
COc1ccc(C2COc3cc(O)c(O)cc3C2)cc1OC (stereo not given)	153
COCCn1c(S(C)=O)nc(-c2ccc(F)cc2)c1-c1ccnc(Nc2ccccc2)c1 (stereo not given)	83 to 85
Clc1nc(Br)cnc1N1CCNCC1	114 to 115
N=C(O)c1cc(C(O)=NCCS)c(C(=O)O)cc1C(=O)O	300
CC12CCC(O)CC1CCC1C2CCC2(C)C(=O)CCC12O (stereo not given)	214 to 217
CCCNC(=O)C1(CCCCc2ccc(N3Cc4ccccc4C3=O)cc2)c2ccccc2-c2ccccc21	147 to 148
O=C1NC(=S)SC1=Cc1ccc2c(c1)OCO2	194 to 195
CCC(=O)N(C)c1cccc(-c2ccc3nnc(N)n3n2)c1	190 to 191
COc1ccc(-c2c(NCC(C)c3ccccc3)c(=O)c2=O)cc1 (stereo not given)	215 to 216
O=C(O)c1ncoc1-c1ccoc1	189 to 191
O=C(O)c1cnc(Nc2ccccc2O)[nH]c1=O	254 to 256
Nc1c(C(=O)c2cccnc2N2CCOCC2)oc2ccc(Cl)cc12	95 to 97
CCCCc1oc2ccc(CO)cc2c1C(=O)c1ccc(O)cc1	180 to 182
Cc1[nH]c(=O)cnc1-c1ccc(NC(=O)OCc2ccccc2)cc1	232
O=c1c(-c2ccc(F)cc2)coc2c(O)c(O)ccc12	289
CC1(C)CC2(NC(=O)NC2=O)c2ccccc2O1 (stereo not given)	233 to 235
O=C1CC(c2cccc(O)c2)=Nc2ccc(N3CCCC3)cc21	364 to 367
OCc1cc(Cl)ccc1I	115 to 117
CCOC(=O)CNC(=O)Cn1c(-c2cccc(Cl)c2)nc2cccnc21	144 to 145
O=c1c2c(Cl)cc(Cl)cc2nc2n1CCCCC2	110 to 112
CC1(C)COc2ccc(C(N)=O)cc21	136 to 138
CC(C)NC(=O)c1cccc(I)c1C(=O)Nc1cc(C(F)(F)F)nn1-c1ccccc1Cl	226 to 228
CCN(CC)c1c([N+](=O)[O-])cc(C#N)c(N)c1[N+](=O)[O-]	146
c1cc(-c2cncnc2)cc(-n2cnc3cc(-c4ccoc4)ccc32)c1	216 to 218
CN(C)OC(=O)c1c(O)cccc1Cl	104 to 106
Cc1ccc(C(=O)NC(=S)NCc2ccccc2C(N)=O)cc1	145 to 147
CC1Oc2ccc(CN3CCN(CC(=O)NC4CC4)CC3)cc2NC1=O (stereo not given)	180 to 181

Structure (SMILES)	melting point [°C]
O=C1CCC(N2C(=O)c3ccc(CNC(=O)Nc4ccc(Cl)c(Cl)c4)cc3C2=O)C(=O)N1 (stereo not given)	290 to 292
CCOC(=O)Cn1c2c(c3cc(Cl)c(Cl)cc31)CCN(C(=O)OC(C)(C)C)CC2	138 to 140
CCCC1=C(Cl)C(=O)c2ccccc2C1=O	71 to 73
COC(=O)c1ncccc1Br	34 to 36
Oc1ccc(-c2nn(C3CCCCC3)c3c(Cl)cccc23)cc1	176 to 177
C=CCCCCCCCCCCCCCCCCCCCCO	62 to 64
N=C(NCc1c(F)cccc1F)NN=Cc1c(Cl)cccc1Cl	168 to 170
Nc1ncc(Cl)c(CCl)c1Cl	124 to 126
CC(CCc1cc2cccnc2n(-c2cccc(N)c2)c1=O)c1ccncc1 (stereo not given)	83 to 91
COc1cc(-c2cnc3[nH]cc(C(=O)C(C)C)c3n2)cc(OC)c1OC	189 to 190
O=Cc1cc([N+](=O)[O-])ccc1Sc1ccccc1	96 to 100
CCCCc1ccc(NC(=O)CN(C)C)c(N)c1	66 to 68
O=C(O)[C@H](Cc1ccc(OCc2ccccc2)cc1)NS(=O)(=O)c1ccc(N2CCC(c3ccccc3)CC2)cc1	75 to 78
CC(C)(C)OC(=O)N1CCC(C#N)(c2ccc(Cl)c(Cl)c2)CC1	142 to 145
CCc1nc(NC(=O)C2=C(O)c3ccc4ccccc4c3S(=O)(=O)N2C)sc1C	233 to 234
CCCCCC(=O)c1ccc(O)c(C(=O)O)c1	48 to 49
Cn1nc(-c2ccccc2S(=O)(=O)Cl)oc1=O	122 to 125
Cc1oc(-c2ccccc2)nc1COc1ccc(CON2C(=O)c3ccccc3C2=O)cc1	155 to 156
CN(C)CCCNC(=O)c1ccc(-c2nnc(CSCCOc3ccc(Cl)cc3Cl)o2)cc1	140 to 141
O=C(NC(=O)N1C(=O)Cc2ccccc21)c1ccccc1	184
CCS(=O)(=O)c1nn(-c2ccccc2)c(=O)c2c(N)scc12	190 to 191
CC(=O)c1cc2c(s1)C(N1CCCC1=O)C(O)C(C)(C)O2 (stereo not given)	102 to 106
CCOc1nn(-c2ccccn2)cc1CCCOc1cccc(CC(=O)O)c1	66 to 67
CC(C)C1=CC2=CCC3C(C)(C(=O)N(C)C4CCCCC4)CCCC3(C)C2CC1 (stereo not given)	130 to 132
